This is an account of results in patent US20150225369A1, “DDR2 INHIBITORS FOR THE TREATMENT OF OSTEOARTHRITIS” (Merck Patent GmbH, priority 2012, published 2015).

Molecules are shown by their SMILES.

The test deals with T1, His-tagged human recombinant DDR-2 kinase domain (His-TEV-DDR2 467-855 aa) (Homo sapiens, UniProt Q16832).
T1 construct: His-TEV-DDR2 467-855 aa
T1 sequence (Q16832 467-855): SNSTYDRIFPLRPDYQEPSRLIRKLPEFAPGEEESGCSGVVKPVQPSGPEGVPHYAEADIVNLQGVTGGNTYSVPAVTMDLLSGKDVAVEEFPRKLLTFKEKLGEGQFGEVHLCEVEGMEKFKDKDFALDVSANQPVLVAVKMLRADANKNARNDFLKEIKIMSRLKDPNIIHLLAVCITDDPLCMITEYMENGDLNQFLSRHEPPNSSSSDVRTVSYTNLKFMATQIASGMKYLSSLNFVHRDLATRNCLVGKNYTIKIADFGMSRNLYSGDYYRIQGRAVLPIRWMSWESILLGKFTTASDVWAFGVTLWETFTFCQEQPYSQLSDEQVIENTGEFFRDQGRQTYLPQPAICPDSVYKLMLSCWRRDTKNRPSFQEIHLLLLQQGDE
Kind of test: Autophosphorylation assay for biochemical activity testing of DDR2 (HTRF). The settings on record: biochemical DDR2 autophosphorylation. The method, then: The autophosphorylation assay was run in two steps: the enzymatic reaction in which His-tagged DDR2 with ATP as co-substrate phosphorylates itself and the detection reaction where a time resolved FRET between XL665® labelled anti-6His antibody bound to the His-tag of the enzyme and cryptate labelled anti-phospho-Tyrosine-antibody (PT66) bound the phosphorylated Tyrosine residue of DDR2 was analysed. The autophosphorylation activity was detectable directly via the increase in HTRF signal.
The autophosphorylation assay was performed as 1536 well or 384 well HTRF® (Cisbio, Codolet, France) assay format in Greiner low volume medium binding 384-well microtiter plates and was used for high throughput screen. […] The ratio of the emission signals was determined. The full value used was the inhibitor-free reaction.

The IC50 is the concentration at which inhibition is half-maximal. Turning to `CNC(=O)c1cc(Oc2ccc(CNC(=O)Nc3cc(Cl)cnc3Cl)cc2)ccn1` [compound 93, 4-{4-[3-(2,5-Dichloro-pyridin-3-yl)-ureidomethyl]-phenoxy}-pyridine-2-carboxylic acid methylamide], the IC50 is 0.042 µM.

Turning to `CNC(=O)c1cc(Oc2ccc(CNC(=O)Nc3cc(C(F)(F)F)ccc3OCC(=O)O)cc2)ccn1` [compound 94, (2-{3-[4-(2-Methylcarbamoyl-pyridin-4-yloxy)-benzyl]-ureido}-4-trifluoromethyl-phenoxy)-acetic acid], the IC50 turned out to be 1.6 µM. The value for `CNC(=O)c1cc(Oc2ccc(CNC(=O)Nc3cc(C(F)(F)F)c(Cl)cc3OCCN(C)C)cc2)ccn1` [compound 95, 4-(4-{3-[4-Chloro-2-(2-dimethylamino-ethoxy)-5-trifluoromethyl-phenyl]-ureidomethyl}-phenoxy)-pyridine-2-carboxylic acid methylamide] was 0.081 µM; that for `CNC(=O)c1cc(Oc2ccc(CNC(=O)Nc3cc4ccccc4cn3)cc2)ccn1` [compound 96, 4-{4-[(3-Isoquinolin-3-yl-ureido)-methyl]-phenoxy}-pyridine-2-carboxylic acid methylamide] was 0.17 µM. `CNC(=O)c1cc(Oc2ccc(CNC(=O)Nc3cnc4ccccc4c3)cc2)ccn1` [compound 97, 4-{4-[(3-Quinolin-3-yl-ureido)-methyl]-phenoxy}-pyridine-2-carboxylic acid methylamide]: the IC50 came out at 0.29 µM.

`CNC(=O)c1cc(Oc2ccc(CNC(=O)Nc3cc(C(F)(F)F)c(Cl)cc3OCC(=O)O)cc2)ccn1` [compound 98, (5-Chloro-2-{3-[4-(2-methylcarbamoyl-pyridin-4-yloxy)-benzyl]-ureido}-4-trifluoromethyl-phenoxy)-acetic acid]: the IC50 was 3.3 µM. Under `CNC(=O)c1cc(Oc2ccc(CNC(=O)Nc3cc4ccccc4nc3OC)cc2)ccn1` [compound 101, 4-{4-[3-(2-Methoxy-quinolin-3-yl)-ureidomethyl]-phenoxy}-pyridine-2-carboxylic acid methylamide] stands 0.19 µM; under `CNC(=O)c1cc(Oc2ccc(CNC(=O)Nc3cc(C(F)(F)F)ccc3OC)cc2C)ccn1` [compound 102, 4-{4-[3-(2-Methoxy-5-trifluoromethyl-phenyl)-ureidomethyl]-2-methyl-phenoxy}-pyridine-2-carboxylic acid methylamide], 0.05 µM; under `CNC(=O)c1cc(Oc2ccc(CNC(=O)Nc3cc(Cl)ccc3OC)c(C)c2)ccn1` [compound 104, 4-{4-[3-(5-Chloro-2-methoxy-phenyl)-ureidomethyl]-3-methyl-phenoxy}-pyridine-2-carboxylic acid methylamide], 0.27 µM.

As for `CNC(=O)c1cc(Oc2ccc(CNC(=O)Nc3cc(C(F)(F)F)ccc3OC)c(C)c2)ccn1` [compound 105, 4-{4-[3-(2-Methoxy-5-trifluoromethyl-phenyl)-ureidomethyl]-3-methyl-phenoxy}-pyridine-2-carboxylic acid methylamide], the IC50 amounted to 0.18 µM.

As for `CNC(=O)c1cc(Oc2ccc(CNC(=O)Nc3cc(C(F)(F)F)ccc3OCCN3CCCC3)cc2)ccn1` [compound 106, 4-(4-{3-[2-(2-Pyrrolidin-1-yl-ethoxy)-5-trifluoromethyl-phenyl]-ureidomethyl}-phenoxy)-pyridine-2-carboxylic acid methylamide], the IC50 was found to be 0.14 µM.

As to `CNC(=O)c1cc(Oc2ccc(CNC(=O)Nc3cc(C(F)(F)F)c(Cl)cc3OCC(=O)OC(C)(C)C)cc2)ccn1` [compound 107, (5-Chloro-2-{3-[4-(2-methylcarbamoyl-pyridin-4-yloxy)-benzyl]-ureido}-4-trifluoromethyl-phenoxy)-acetic acid tert-butyl ester], the half-maximal inhibitory concentration (IC50) was 0.022 µM. The value for `CCN(CC)CCOc1ccc(C(F)(F)F)cc1NC(=O)NCc1ccc(Oc2ccnc(C(=O)NC)c2)cc1` [compound 108, 4-(4-{3-[2-(2-Diethylamino-ethoxy)-5-trifluoromethyl-phenyl]-ureidomethyl}-phenoxy)-pyridine-2-carboxylic acid methylamide] was 0.03 µM; that for `CNC(=O)c1cc(Oc2ccc(CNC(=O)Nc3cc(C(F)(F)F)ccc3OCCN3CCOCC3)cc2)ccn1` [compound 109, 4-(4-{3-[2-(2-Morpholin-4-yl-ethoxy)-5-trifluoromethyl-phenyl]-ureidomethyl}-phenoxy)-pyridine-2-carboxylic acid methylamide] was 0.072 µM. The value for `CNC(=O)c1cc(Oc2ccc(CNC(=O)Nc3cc(C(F)(F)F)c(Cl)cc3OCC(=O)OC)cc2)ccn1` [compound 113, (5-Chloro-2-{3-[4-(2-methylcarbamoyl-pyridin-4-yloxy)-benzyl]-ureido}-4-trifluoromethyl-phenoxy)-acetic acid methyl ester] was 0.057 µM.

As to `CNC(=O)c1cc(Oc2ccc(CNC(=O)Nc3cc(C(F)(F)F)c(Cl)cc3OCC(=O)OC(C)C)cc2)ccn1` [compound 114, (5-Chloro-2-{3-[4-(2-methylcarbamoyl-pyridin-4-yloxy)-benzyl]-ureido}-4-trifluoromethyl-phenoxy)-acetic acid isopropyl ester], the half-maximal inhibitory concentration (IC50) came out at 0.024 µM. The value for `CNC(=O)c1cc(Oc2ccc(CNC(=O)Nc3cc(C(F)(F)F)ccc3OC3CCNCC3)cc2)ccn1` [compound 115, 4-(4-{3-[2-(Piperidin-4-yloxy)-5-trifluoromethyl-phenyl]-ureidomethyl}-phenoxy)-pyridine-2-carboxylic acid methylamide] was 0.02 µM; that for `CNC(=O)c1cc(Oc2ccc(CNC(=O)Nc3cc(C)c(Cl)cc3OCCN3CCCC3)cc2)ccn1` [compound 116, 4-(4-{3-[4-Chloro-5-methyl-2-(2-pyrrolidin-1-yl-ethoxy)-phenyl]-ureidomethyl}-phenoxy)-pyridine-2-carboxylic acid methylamide] was 0.41 µM; that for `CCN(CC)CCOc1cc(Cl)c(C)cc1NC(=O)NCc1ccc(Oc2ccnc(C(=O)NC)c2)cc1` [compound 117, 4-(4-{3-[4-Chloro-2-(2-diethylamino-ethoxy)-5-methyl-phenyl]-ureidomethyl}-phenoxy)-pyridine-2-carboxylic acid methylamide] was 0.425 µM. The value for `CNC(=O)c1cc(Oc2ccc(CNC(=O)Nc3cc(C)c(Cl)cc3OC)cc2C)ccn1` [compound 119, 4-{4-[3-(4-Chloro-2-methoxy-5-methyl-phenyl)-ureidomethyl]-2-methyl-phenoxy}-pyridine-2-carboxylic acid methylamide] was 0.21 µM.

Regarding `CNC(=O)c1cc(Oc2ccc(CNC(=O)Nc3cc(C)c(Cl)cc3OCCN3CCNCC3)cc2)ccn1` [compound 120, 4-(4-{3-[4-Chloro-5-methyl-2-(2-piperazin-1-yl-ethoxy)-phenyl]-ureidomethyl}-phenoxy)-pyridine-2-carboxylic acid methylamide], the half-maximal inhibitory concentration (IC50) came out at 0.176 µM. Under `CNC(=O)c1cc(Oc2ccc(CNC(=O)Nc3cc(C(F)(F)F)ccc3OCCN)cc2)ccn1` [compound 121, 4-(4-{3-[2-(2-Amino-ethoxy)-5-trifluoromethyl-phenyl]-ureidomethyl}-phenoxy)-pyridine-2-carboxylic acid methylamide] stands 0.034 µM. Regarding `COc1cc(Cl)c(C)cc1NC(=O)NCc1ccc(Oc2ccnc(C(=O)NCCN)c2)cc1` [compound 123, 4-{4-[3-(4-Chloro-2-methoxy-5-methyl-phenyl)-ureidomethyl]-phenoxy}-pyridine-2-carboxylic acid (2-amino-ethyl)-amide], the IC50 came to 3.1 µM.

As to `COc1cc(Cl)c(C)cc1NC(=O)NCc1ccc(Oc2ccnc(C(=O)NCCCCCCN)c2)cc1` [compound 126, 4-{4-[3-(4-Chloro-2-methoxy-5-methyl-phenyl)-ureidomethyl]-phenoxy}-pyridine-2-carboxylic acid (6-amino-hexyl)-amide], the 50% inhibitory concentration (IC50) was determined as 0.15 µM. `CNC(=O)c1cc(Oc2ccc(CNC(=O)Nc3cc(C(F)(F)F)c(Cl)cc3OCCN3CCCC3)cc2)ccn1` [compound 129, 4-(4-{3-[4-Chloro-2-(2-pyrrolidin-1-yl-ethoxy)-5-trifluoromethyl-phenyl]-ureidomethyl}-phenoxy)-pyridine-2-carboxylic acid methylamide]: the IC50 was found to be 0.25 µM. Turning to `CNC(=O)c1cc(Oc2ccc(CNC(=O)Nc3cc(C(F)(F)F)c(Cl)cc3OCCN3CCOCC3)cc2)ccn1` [compound 131, 4-(4-{3-[4-Chloro-2-(2-morpholin-4-yl-ethoxy)-5-trifluoromethyl-phenyl]-ureidomethyl}-phenoxy)-pyridine-2-carboxylic acid methylamide], the IC50 stood at 0.096 µM. The value for `CCN(CC)CCOc1cc(Cl)c(C(F)(F)F)cc1NC(=O)NCc1ccc(Oc2ccnc(C(=O)NC)c2)cc1` [compound 132, 4-(4-{3-[4-Chloro-2-(2-diethylamino-ethoxy)-5-trifluoromethyl-phenyl]-ureidomethyl}-phenoxy)-pyridine-2-carboxylic acid methylamide] was 0.125 µM.
